≈ marks a conversion by molar mass, not a printed value.
Legend:
Assay type in all cases: cell-based
[1] = test system: Candida albican ATCC MYA-1003; assay: In vitro antifungal activity (MIC80), Candida albican ATCC MYA-1003; details: Candida; Table 2, MYA 1003; read-out: Minimal inhibitory concentration (MIC80)
Description: (§1) In vitro antifungal activities of the inventive antifungal compounds were evaluated using test strains including Candida albican (ATCC 90873, 204276, 62342, 64124, 64550, 96901, MYA-573, MYA-574, MYA-575, MYA-576, MYA-1003) and Aspergillus fumigatus (ATCC 16424). Test samples and positive control samples were prepared by dissolving the inventive compounds and comparative compounds, i.e., amphotericin B, fluconazole and itraconazole, in DMSO, respectively, and each successively diluted with medium to obtain test and positive control solutions having test compound concentrations of 0.125 μg/ml to a maximum concentration not generating turbidity. Minimal inhibitory concentration (MIC80) of each compound was determined as the lowest concentration of the test compounds required to reduce growth by 80% relative to a control strain not treated.
(§2) 1) Test strain: Candida albican ATCC 90873, 204276, 62342, 64124, 64550, 96901, MYA-573, MYA-574, MYA-575, MYA-576, MYA-1003, and Aspergillus fumigatus ATCC 16424 were commercially obtained from The American Type Culture Collection (ATCC) and subcultured in CHEMON Co. Ltd. (amphotericin B was commercially purchased from Sigma, and fluconazole and itraconazole were prepared according to methods described in British Patent No. 2,099,818; and U.S. Pat. No. 4,267,179, respectively).
(§3) 2) Medium and culture condition: Candida albican was cultured in Sabourad Dextrose Agar, YM Agar or Potato Dextrose Agar according to ATCC information at a temperature of 37° C., 35° C., 30° C. or 25° C. Aspergillus fumigatus was cultured in Malt Extract Agar or Potato Dextrose Agar at a temperature ranging from 24 to 27° C.
(§4) 3) Preparation of test samples: the inventive compounds and comparative compounds were each diluted with DMSO to obtain 1 to 2 ml of a test sample in a concentration of 100-folds of the determining maximum concentration (256 μg/ml).
(§5) The test samples were each successively diluted with RPMI 1640 to obtain test solutions having concentrations of […] in a 12×75 mm sterilized disposable culture tube. The final concentration of DMSO was adjusted to […] (v/v).
(§6) 5) Preparation of strain solution and inoculation
(§7) Candida albican strains were each subcultured in Sabourad Dextrose Agar, YM Agar or Potato Dextrose Agar medium at 35° C. for 2˜3 days. In the case of yeasts, a single colony was taken from prominent colonies and suspended in 0.85% sterile physiological saline solution and the turbidity of the suspension was adjusted to 80˜82% at 530 nm, and then diluted 50-fold with RPMI 1640 medium to 1.0×10^3˜5.0×10^3 CFU/ml. The turbidity of fungi was adjusted to 80˜82% and the suspension was diluted 50-fold to […]. Aspergillus fumigatus strains were subcultured in Malt Extract Agar for 7˜10 days, and a single colony was taken from prominent colonies and suspended in 0.85% sterile physiological saline solution and the suspension was adjusted to 0.108 at 530 nm, and then diluted 1000-fold with RPMI 1640 medium to 0.4×10^2˜5×10^4 CFU/ml. The turbidity of fungi was adjusted to 80˜82% and the suspension was diluted 50-fold to 0.4102˜0.5104 CFU/ml.
(§8) The strain solutions thus obtained were each seeded into a sterilized 96-well microplate, 0.1 ml of each test solution were added thereto, and […] of alamarblue was treated to each well (Biosource, #DAL1100). This procedure was repeated 2 times.
(§9) Minimal inhibitory concentration (MIC80) of each compound was determined as the lowest concentration of the test compounds required to reduce growth by 80% relative to a control strain not treated.

[2] = test system: Candida albican ATCC 96901; assay: In vitro antifungal activity (MIC80), Candida albican ATCC 96901; details: Candida, ATCC96901; Table 2, ATCC 96901; read-out: Minimal inhibitory concentration (MIC80)
Description: as §1, §2, §3, §4, §5, §6, §7, §8, §9

[3] = test system: Candida albican ATCC 64124; assay: In vitro antifungal activity (MIC80), Candida albican ATCC 64124; details: Candida, ATCC64124; Table 2, 64124; read-out: Minimal inhibitory concentration (MIC80)
Description: as §1, §2, §3, §4, §5, §6, §7, §8, §9

[4] = test system: Candida albican ATCC 62342; assay: In vitro antifungal activity (MIC80), Candida albican ATCC 62342; details: Candida, ATCC62342; Table 2, 62342; read-out: Minimal inhibitory concentration (MIC80)
Description: as §1, §2, §3, §4, §5, §6, §7, §8, §9

[5] = test system: Candida albican ATCC MYA-573; assay: In vitro antifungal activity (MIC80), Candida albican ATCC MYA-573; details: Candida; Table 2, MYA 573; read-out: Minimal inhibitory concentration (MIC80)
Description: as §1, §2, §3, §4, §5, §6, §7, §8, §9

[6] = test system: Candida albican ATCC MYA-574; assay: In vitro antifungal activity (MIC80), Candida albican ATCC MYA-574; details: Candida; Table 2, MYA 574; read-out: Minimal inhibitory concentration (MIC80)
Description: as §1, §2, §3, §4, §5, §6, §7, §8, §9

[7] = test system: Candida albican ATCC 90873; assay: In vitro antifungal activity (MIC80), Candida albican ATCC 90873; details: Candida, ATCC90873; Table 2, ATCC 90873; read-out: Minimal inhibitory concentration (MIC80)
Description: as §1, §2, §3, §4, §5, §6, §7, §8, §9

[8] = test system: Candida albican ATCC 64550; assay: In vitro antifungal activity (MIC80), Candida albican ATCC 64550; details: Candida, ATCC64550; Table 2, 64550; read-out: Minimal inhibitory concentration (MIC80)
Description: as §1, §2, §3, §4, §5, §6, §7, §8, §9

[9] = test system: Candida albican ATCC MYA-576; assay: In vitro antifungal activity (MIC80), Candida albican ATCC MYA-576; details: Candida; Table 2, MYA 576; read-out: Minimal inhibitory concentration (MIC80)
Description: as §1, §2, §3, §4, §5, §6, §7, §8, §9

[10] = test system: Candida albican ATCC MYA-575; assay: In vitro antifungal activity (MIC80), Candida albican ATCC MYA-575; details: Candida; Table 2, MYA 575; read-out: Minimal inhibitory concentration (MIC80)
Description: as §1, §2, §3, §4, §5, §6, §7, §8, §9

SMILES | MIC80 [1] [µg/mL] | MIC80 [2] [µg/mL] | MIC80 [3] [µg/mL] | MIC80 [4] [µg/mL] | MIC80 [5] [µg/mL] | MIC80 [6] [µg/mL] | MIC80 [7] [µg/mL] | MIC80 [8] [µg/mL] | MIC80 [9] [µg/mL] | MIC80 [10] [µg/mL]
CC(N1CCN(c2ccc(N(C)CCc3cccs3)nc2)CC1)C(O)(Cn1cncn1)c1ccc(F)cc1F (stereo not drawn) [Example 37] | > 128 | > 128 | 32 (≈ 57.8 µM) | 1 (≈ 1.81 µM) | 1 (≈ 1.81 µM) | 2 (≈ 3.61 µM) | 0.125 (≈ 0.226 µM) | 4 (≈ 7.22 µM) | 0.5 (≈ 0.903 µM) | 0.5 (≈ 0.903 µM)
C[C@@H](N1CCN(c2ccc(OCc3cccs3)nc2)CC1)[C@](O)(Cn1cncn1)c1ccc(F)cc1F [Example 35, (2R,3R)-2-(2,4-difluorophenyl)-3-(4-(6-(thiophen-2-ylmethoxy)pyridin-3-yl)piperazin-1-yl)-1-(1H-1,2,4-triazol-1-yl)butan-2-ol] | > 128 | > 128 | 8 (≈ 15.2 µM) | 0.5 (≈ 0.949 µM) | 0.5 (≈ 0.949 µM) | 1 (≈ 1.9 µM) | 0.125 (≈ 0.237 µM) | 1 (≈ 1.9 µM) | 0.125 (≈ 0.237 µM) | 0.125 (≈ 0.237 µM)
CC(N1CCN(c2ccc(N(C)CCCN3CCOCC3)nc2)CC1)C(O)(Cn1cncn1)c1ccc(F)cc1F (stereo not drawn) [Example 36] | 128 (≈ 224 µM) | 16 (≈ 28 µM) | 128 (≈ 224 µM) | 4 (≈ 7.01 µM) | 8 (≈ 14 µM) | 8 (≈ 14 µM) | 2 (≈ 3.5 µM) | 16 (≈ 28 µM) | 4 (≈ 7.01 µM) | 2 (≈ 3.5 µM)
C[C@@H](N1CCN(c2ccc(OCC3CC3)nc2)CC1)[C@](O)(Cn1cncn1)c1ccc(F)cc1F [Example 30, (2R,3R)-3-(4-(6-(cyclopropylmethoxy)pyridin-3-yl)piperazin-1-yl)-2-(2,4-difluorophenyl)-1-(1H-1,2,4-triazol-1-yl)butan-2-ol] | > 128 | 32 (≈ 66 µM) | 32 (≈ 66 µM) | 1 (≈ 2.06 µM) | 1 (≈ 2.06 µM) | 4 (≈ 8.26 µM) | 0.125 (≈ 0.258 µM) | 1 (≈ 2.06 µM) | 0.125 (≈ 0.258 µM) | 0.125 (≈ 0.258 µM)

Continued, values first:

MIC80 [1] [µg/mL] | MIC80 [2] [µg/mL] | MIC80 [3] [µg/mL] | MIC80 [4] [µg/mL] | MIC80 [5] [µg/mL] | MIC80 [6] [µg/mL] | MIC80 [7] [µg/mL] | MIC80 [8] [µg/mL] | MIC80 [9] [µg/mL] | MIC80 [10] [µg/mL] | SMILES
> 128 | > 128 | > 128 | 128 (≈ 257 µM) | 32 (≈ 64.2 µM) | > 128 | 0.5 (≈ 1 µM) | 64 (≈ 128 µM) | 0.5 (≈ 1 µM) | 0.5 (≈ 1 µM) | C[C@@H](N1CCN(c2cccc(OC3CCCC3)n2)CC1)[C@](O)(Cn1cncn1)c1ccc(F)cc1F [Example 22, (2R,3R)-3-(4-(6-(cyclopentyloxy)pyridin-2-yl)piperazin-1-yl)-2-(2,4-difluorophenyl)-1-(1H-1,2,4-triazol-1-yl)butan-2-ol]
> 128 | > 128 | > 128 | > 128 | 2 (≈ 3.8 µM) | > 128 | 0.25 (≈ 0.475 µM) | > 128 | 0.5 (≈ 0.949 µM) | 1 (≈ 1.9 µM) | C[C@@H](N1CCN(c2cccc(OCc3cccs3)n2)CC1)[C@](O)(Cn1cncn1)c1ccc(F)cc1F [Example 25, (2R,3R)-2-(2,4-difluorophenyl)-3-(4-(6-(thiophen-2-ylmethoxy)pyridin-2-yl)piperazin-1-yl)-1-(1H-1,2,4-triazol-1-yl)butan-2-ol]
